Results reported in ChEMBL document CHEMBL1126767, “Three-dimensional quantitative structure-activity relationship of angiotesin-converting enzyme and thermolysin inhibitors. II. A comparison of CoMFA models incorporating molecular orbital fields and desolvation free energies based on active-analog and complementary-receptor-field alignment rules” (J Med Chem, 1993).
Square brackets hold non-standard residues; d marks the D form. Peptide text beside a SMILES is read from it. ξ: configuration not given here. ξC = NC(CS)C(=O)O; Mpa = O=C(O)CCS

Target: Angiotensin-converting enzyme (Homo sapiens, UniProt P12821)
Assay: Inhibitory activity against angiotensin converting enzyme (ACE)
Format: functional

Row | Structure (SMILES) | IC50
1 | O=C(O)[C@@H]1CCCN2C(=O)C[C@@H](CS)C(=O)N12 | 0.0708 µM
2 | C[C@H](NP(=O)(O)CCc1ccccc1)C(=O)N1CCC[C@H]1C(=O)O | 0.00708 µM
3 | CC(S)C(=O)N[C@@H](CS)C(=O)O (stereo in doubt; form 2) | 7.94 µM
4 | NCCCC[C@H](OP(=O)(O)CCCCc1ccccc1)C(=O)N1C[C@H](Sc2ccccc2)C[C@H]1C(=O)O | 0.000776 µM
5 | O=C(O)CCC(=O)NCC(=O)O | 2000 µM
6 | O=C(N[C@H](CCC(=O)N1[C@H](C(=O)O)C[C@@H]2CCCC[C@@H]21)C(=O)O)C1CCCN1C(=O)OCc1ccccc1 (some centres undefined) | 0.0151 µM
7 | O=C(O)[C@@H]1C=CCN1C(=O)CCS | 0.646 µM
8 | NCCCC[C@H](OP(=O)(O)CCCCc1ccccc1)C(=O)N1C[C@@H](O)C[C@H]1C(=O)O | 0.0158 µM
9 | CS[C@@H]1C[C@@H](C(=O)O)N(C(=O)[C@H](CCCCN)OP(=O)(O)CCCCc2ccccc2)C1 | 0.000525 µM
10 | O=C(CCS)N[C@@H](CS)C(=O)O | 67.6 µM
11 | NCCCC[C@H](OP(=O)(O)CCCCc1ccccc1)C(=O)N1C[C@@H](C2CCCCC2)C[C@H]1C(=O)O | 0.00049 µM
12 | O=C(O)CCn1c(=O)n2n(c1=O)[C@H](C(=O)O)C=CC2 | 0.001 µM
13 | NCCCCC(NC(=O)OCc1ccccc1)C(=O)N[C@H](CCC(=O)N1c2ccccc2C[C@H]1C(=O)O)C(=O)O (some centres undefined) | 2.51 µM
14 | NCCCC[C@H](OP(=O)(O)CCCCc1ccccc1)C(=O)N1CC2(C[C@H]1C(=O)O)SCCS2 | 0.000631 µM
15 | O=C(NC(Cc1ccccc1)CP(=O)(O)CC(=O)N1CCC[C@H]1C(=O)O)c1ccccc1 (some centres undefined) | 0.01 µM
16 | CN(CC(=O)O)C(=O)CCS | 3.02 µM
17 | CC(C(=O)O)C1CCCCC(CS)C1=O (centres undefined) | 0.0525 µM
18 | NCCCC[C@H](OP(=O)(O)CCCCc1ccccc1)C(=O)N1C[C@@H](Cc2ccccc2)C[C@H]1C(=O)O | 0.000891 µM
19 | CC(S)C(=O)N[C@@H](Cc1c[nH]c2ccccc12)C(=O)O (stereo in doubt; form 1) | 0.363 µM
20 | N[C@@H](Cc1ccccc1)C(=O)N[C@H](CCC(=O)N1[C@H](C(=O)O)C[C@@H]2CCCC[C@@H]21)C(=O)O | 0.219 µM
21 | O=C(CS)N[C@@H](Cc1c[nH]cn1)C(=O)O | 257 µM
22 | NCCC[C@H](NC(CCc1ccccc1)C(=O)O)C(=O)N1CCC[C@H]1C(=O)O (some centres undefined) | 0.00219 µM
23 | C[C@H](CC(=O)O)C(=O)N1CCC[C@H]1C(=O)O | 10.2 µM
24 | CC(CS)C(=O)N[C@@H](Cc1c[nH]c2ccccc12)C(=O)O (stereo in doubt) | 33.1 µM
25 | NCCCC[C@H](OP(=O)(O)CCCCc1ccccc1)C(=O)N1C[C@H](O)C[C@H]1C(=O)O | 0.000871 µM
26 | O=C(CCS)OC(Cc1ccccc1)C(=O)O (centres undefined) | 0.708 µM

Row | Structure (SMILES) | IC50
27 | O=C(O)CCc1cc(O)c2n(c1=O)[C@H](C(=O)O)CC2 | 0.457 µM
28 | NC(CS)C(=O)N1CCC[C@H]1C(=O)O (some centres undefined) (H-[ξC]-Pro-OH) | 0.0631 µM
29 | CC(C)C[C@H](NC(=O)CCC(=O)O)C(=O)O | 617 µM
30 | C[C@H](NC(=O)CCC(=O)O)C(=O)O | 1350 µM
31 | O=C(O)CCCCCS | 1100 µM
32 | O=C(O)[C@@H]1CC2(CN1C(=O)CP(=O)(O)CCCCc1ccccc1)SCCS2 | 0.00398 µM
33 | CC[C@H](C)[C@H](N)C(=O)N1CCC[C@H]1C(=O)O (H-Ile-Pro-OH) | 129 µM
34 | NCC(=O)N1CCC[C@H]1C(=O)O [GLYCYL PROLINE] (H-Gly-Pro-OH) | 447 µM
35 | O=C(O)[C@@H]1CCCN1C(=O)CCS (stereo in doubt; 56) | 17 µM
36 | C[C@H](NC(CCc1ccccc1)C(=O)O)C(=O)N1CC2CCCCC2[C@H]1C(=O)O (some centres undefined) | 0.00219 µM
37 | C[C@H](CC(CCc1ccccc1)C(=O)O)C(=O)N1c2ccccc2C[C@H]1C(=O)O (some centres undefined) | 0.00479 µM
38 | CC(C)(S)C(=O)N[C@@H](Cc1c[nH]c2ccccc12)C(=O)O | 38 µM
39 | NCC(=O)N[C@@H](Cc1ccccc1)C(=O)O (H-Gly-Phe-OH) | 603 µM
40 | O=C(O)[C@@H]1C=CCn2c(=O)n(CS)c(=O)n21 | 0.708 µM
41 | C[C@H](NC(CCC(=O)Nc1ccccc1)C(=O)O)C(=O)N1CCC[C@H]1C(=O)O (some centres undefined) | 0.00525 µM
42 | C[C@@H]1CCCC(NC(CCc2ccccc2)C(=O)O)C(=O)N1CC(=O)O (some centres undefined) | 0.00302 µM
43 | CC(C)(C)OC(=O)[C@@H]1CCCN1C(=O)CCS | 38.9 µM
44 | O=C(CS)N[C@@H](CS)C(=O)O | 19.1 µM
45 | O=C(O)[C@@H]1CCCN1CCCS | 240 µM
46 | C[C@H](NP(=O)(O)O)C(=O)N1CCC[C@H]1C(=O)O | 0.776 µM
47 | C[C@H](NC(CCN)C(=O)O)C(=O)N1CCC[C@H]1C(=O)O (some centres undefined) | 0.324 µM
48 | C[C@H](NP(=O)(O)OCc1ccccc1)C(=O)N1CCC[C@H]1C(=O)O | 0.0407 µM
49 | NCCCC[C@H](OP(=O)(O)CCCCc1ccccc1)C(=O)N1C[C@H](C2CCCCC2)C[C@H]1C(=O)O | 0.00324 µM
50 | C[C@@H](NC(=O)C(S)Cc1ccccc1)C(=O)N1CCC[C@H]1C(=O)O (some centres undefined) | 0.0501 µM
51 | O=C(O)CCC(=O)CCS | 2.4 µM
52 | C[C@@H](N)C(=O)N[C@@H](Cc1ccccc1)C(=O)O (stereo in doubt; 53) | 52.5 µM

Row | Structure (SMILES) | IC50
53 | O=C(O)[C@@H]1CCCN1C(=O)C1CCCC1S (some centres undefined) | 0.0646 µM
54 | CC(C)(S)C(=O)N[C@@H](CC(=O)O)C(=O)O | 3470 µM
55 | COc1ccc(N(CC(=O)O)C(=O)[C@H](CCCCN)OP(=O)(O)CCCCc2ccccc2)cc1OC | 0.000288 µM
56 | C[C@H](NCC(=O)O)C(=O)N1CCC[C@H]1C(=O)O | 2.4 µM
57 | O=C(O)[C@@H]1CCC(=O)N1CCCS | 646 µM
58 | C[C@H](NC(CCCNC(=O)OCc1ccccc1)C(=O)O)C(=O)N1CCC[C@H]1C(=O)O (some centres undefined) | 0.00288 µM
59 | CC(CS)C(=O)N[C@@H](Cc1c[nH]c2ccccc12)C(=O)O (stereo in doubt; 30A) | 0.0347 µM
60 | C[C@@H](N)C(=O)N[C@@H](Cc1ccccc1)C(=O)O (stereo in doubt; 52) | 191 µM
61 | CC(C)[C@H](N)C(=O)N1CCC[C@H]1C(=O)O (H-Val-Pro-OH) | 417 µM
62 | NCCCC[C@H](OP(=O)(O)CCCCc1ccccc1)C(=O)N1C[C@@H](Sc2ccccc2)C[C@H]1C(=O)O | 0.000525 µM
63 | NC(Cc1ccccc1)C(=O)N[C@H](CCC(=O)N1[C@H](C(=O)O)C[C@@H]2CCCC[C@@H]21)C(=O)O (some centres undefined) | 0.1 µM
64 | O=C(CS)N[C@@H](Cc1c[nH]c2ccccc12)C(=O)O | 0.759 µM
65 | CC(C)(S)C(=O)N[C@@H](CS)C(=O)O [BUCILLAMINE] | 7240 µM
66 | NCCCCC(N)C(=O)N[C@H](CCC(=O)N1[C@H](C(=O)O)C[C@@H]2CCCC[C@@H]21)C(=O)O (some centres undefined) | 0.012 µM
67 | C[C@H](NC(CCC(=O)Nc1ccc(I)cc1)C(=O)O)C(=O)N1CCC[C@H]1C(=O)O (some centres undefined) | 0.000229 µM
68 | O=C(CCS)N[C@@H](Cc1ccccc1)C(=O)O | 0.427 µM
69 | CCC(C)[C@H](NC(=O)CCC(=O)O)C(=O)O (some centres undefined) | 1050 µM
70 | NCCCC[C@H](OP(=O)(O)CCCCc1ccccc1)C(=O)N(CC(=O)O)c1ccc2c(c1)OCO2 | 0.000115 µM
71 | CC(S)C(=O)N[C@@H](Cc1c[nH]c2ccccc12)C(=O)O (stereo in doubt; form 2) | 0.0646 µM
72 | C[C@H](NC(CCc1ccccc1)C(=O)O)C(=O)N(CC(=O)O)C1Cc2ccccc2C1 (some centres undefined) | 0.0398 µM
73 | O=C(NC(Cc1ccccc1)C(=O)N[C@H](CCC(=O)N1c2ccccc2C[C@H]1C(=O)O)C(=O)O)OCc1ccccc1 (some centres undefined) | 0.000251 µM
74 | CCN(C[C@H](CCc1ccccc1)C(=O)O)C(=O)N1Cc2ccccc2C[C@H]1C(=O)O | 0.00646 µM
75 | O=C(O)[C@@H]1CCCN1C(=O)C1CCC1S (some centres undefined) | 0.049 µM
76 | NCCCC[C@H](OP(=O)(O)CCCCc1ccccc1)C(=O)N1CCC[C@H]1C(=O)O [CERONAPRIL] | 0.0363 µM
77 | C[C@H](CCC(=O)O)C(=O)N1CCC[C@H]1C(=O)O | 4.9 µM
78 | CC(C)[C@H](NC(=O)CCS)C(=O)O | 1.58 µM

Row | Structure (SMILES) | IC50
79 | O=C(O)[C@H]1CCCN1C(=O)CCS | 1820 µM
80 | NCCCC[C@H](OP(=O)(O)CCCCc1ccccc1)C(=O)N1c2ccccc2C[C@H]1C(=O)O | 0.000295 µM
81 | C[C@H](NC(=O)CCS)C(=O)O | 0.851 µM
82 | C[C@H](NC(CCc1ccccc1)C(N)=O)C(=O)N1CCC[C@H]1C(=O)O (some centres undefined) | 25.7 µM
83 | CC(S)C(=O)N[C@@H](CS)C(=O)O (stereo in doubt; form 1) | 537 µM
84 | CS[C@H]1C[C@@H](C(=O)O)N(C(=O)[C@H](CCCCN)OP(=O)(O)CCCCc2ccccc2)C1 | 0.00191 µM
85 | NCCCC[C@H](OP(=O)(O)CCCCc1ccccc1)C(=O)N1C[C@H](c2ccccc2)C[C@H]1C(=O)O | 0.339 µM
86 | O=C(O)CCC(=O)N1CCC[C@H]1C(=O)O | 33.1 µM
87 | COP(=O)(O)C(CCc1ccccc1)N[C@@H](C)C(=O)N1CCC[C@H]1C(=O)O (some centres undefined) | 0.437 µM
88 | O=C(O)C[C@H](NC(=O)CS)C(=O)O | 77.6 µM
89 | O=C(O)[C@@H]1CCCN1C(=O)CCS (stereo in doubt; 34) | 0.2 µM
90 | C[C@H](NCCCc1ccccc1)C(=O)N1CCC[C@H]1C(=O)O | 5.75 µM
91 | CC(C)[C@H](NC(=O)CCC(=O)O)C(=O)O | 1100 µM
92 | CSC1(SC)C[C@@H](C(=O)O)N(C(=O)[C@H](CCCCN)OP(=O)(O)CCCCc2ccccc2)C1 | 0.00257 µM
93 | O=C(NC(CCc1ccccc1)P(=O)(O)CC(=O)N1CCC[C@H]1C(=O)O)c1ccccc1 (some centres undefined) | 0.0724 µM
94 | CN(C(=O)CCS)[C@@H](Cc1ccccc1)C(=O)O | 30.9 µM
95 | O=C(CCS)N[C@@H](Cc1c[nH]c2ccccc12)C(=O)O (stereo in doubt; form 1) | > 1000 µM
96 | CC[C@@H](C)[C@H](C)C(=O)N[C@@H](Cc1ccccc1)C(=O)O | 933 µM
97 | C[C@H](NC(CCc1ccc(O)cc1)C(=O)O)C(=O)N1CCC[C@H]1C(=O)O (some centres undefined) | 0.00282 µM
98 | C[C@H](NC(=O)CCS)C(=O)N1CCC[C@H]1C(=O)O ([Mpa]-Ala-Pro-OH) | 2.57 µM
99 | C[C@H](NC(C(=O)O)C1CCCN1C(=O)c1ccccc1)C(=O)N1CCC[C@H]1C(=O)O (some centres undefined) | 0.00288 µM
100 | O=C(O)[C@@H]1CCCN1C(=O)CCP(=O)(O)O | 47.9 µM
101 | C[C@H](NC(CCc1ccccc1)P(=O)(O)O)C(=O)N1CCC[C@H]1C(=O)O (some centres undefined) | 0.0513 µM
102 | Cc1ccc(N(CC(=O)O)C(=O)C(C)N)cc1 (centres undefined) | 2.57 µM
103 | O=C(N[C@H](CCC(=O)N1CCC[C@H]1C(=O)O)C(=O)O)C1CCCN1C(=O)OCc1ccccc1 (some centres undefined) | 2.51 µM
104 | O=C(O)C(CCc1ccccc1)N[C@H]1CCN2CCC[C@@H](C(=O)O)N2C1=O (some centres undefined) | 0.0562 µM
